This test deals with BDF1 mice, P388 leukemia ip, median survival T/C. Briefly: NCI In Vivo Anticancer Drug Screen. Data for tumor model P388 Leukemia (intraperitoneal) in B6D2F1 (BDF1) mice. The settings on record: endpoint: median survival time, higher = longer survival. In a few lines: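 Antitumour effect was judged in vivo: survival in drug-treated mice, normalised to that of vehicle-dosed controls, gives the reported T/C.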

Setting [1] is: dose: 200.0 mg/kg/injection, schedule: Q04DX003 (ip), vehicle: saline with Tween-80.
Setting [2] is: dose: 100.0 mg/kg/injection, schedule: Q01DX009 (ip), vehicle: Klucel (hydroxypropylcellulose) (HPC).
Where [3] appears, read: dose: 200.0 mg/kg/injection, schedule: Q01DX009 (ip), vehicle: Klucel (hydroxypropylcellulose) (HPC).
The mark [4] stands for this setting: dose: 400.0 mg/kg/injection, schedule: Q01DX009 (ip), vehicle: Klucel (hydroxypropylcellulose) (HPC).
Where [5] appears, read: dose: 12.5 mg/kg/injection, schedule: Q01DX009 (ip), vehicle: saline with Tween-80.
[6] abbreviates: dose: 100.0 mg/kg/injection, schedule: Q04DX003 (ip), vehicle: Klucel (hydroxypropylcellulose) (HPC).
Where [7] appears, read: dose: 200.0 mg/kg/injection, schedule: Q04DX003 (ip), vehicle: Klucel (hydroxypropylcellulose) (HPC).
Where [8] appears, read: dose: 400.0 mg/kg/injection, schedule: Q04DX003 (ip), vehicle: Klucel (hydroxypropylcellulose) (HPC).

“And” between values parts separate entries of the source, which are not always exact repeats. Identical values can stand only once. Toxic doses and inconclusive results are not listed.

This passage reports T/C results from PubChem BioAssay AID328 (DTP/NCI, 2004).

For `O=C1c2ccccc2C(=O)N1CC(O)COc1ccccc1` (stereo unspecified), the T/C was 104 % of control (dose: 75.0 mg/kg/injection, schedule: Q01DX001 (ip), vehicle: saline sonified); 122 % of control (dose: 150.0 mg/kg/injection, schedule: Q01DX001 (ip), vehicle: saline sonified); 104 % of control (dose: 300.0 mg/kg/injection, schedule: Q01DX001 (ip), vehicle: saline sonified).

Consider `C[N+](C)(Cn1nc(Cl)c2cc([N+](=O)[O-])ccc21)Cn1nc(Cl)c2cc([N+](=O)[O-])ccc21`, for which the T/C reads like this: (dose: 100.0 mg/kg/injection, schedule: Q04DX003 (ip), vehicle: saline with Tween-80) 115 % of control; under setting [1], 153 % of control.

Consider `O=c1[nH]cnc2c(C3OC(CO)C(O)C3O)[nH]nc12` (stereo unspecified), for which the T/C reads like this: (dose: 10.0 mg/kg/injection, schedule: Q01DX009 (ip), vehicle: saline) 91 % of control; (dose: 20.0 mg/kg/injection, schedule: Q01DX009 (ip), vehicle: saline) 100 % of control; (dose: 40.0 mg/kg/injection, schedule: Q01DX009 (ip), vehicle: saline) 91 % of control.

On to `O=C1/C(=C\c2ccco2)SC(=S)N1c1ccccc1`, for which the T/C is 96 % of control (dose: 10.0 mg/kg/injection, schedule: Q01DX009 (ip), vehicle: saline with Tween-80); 89 % of control (dose: 20.0 mg/kg/injection, schedule: Q01DX009 (ip), vehicle: saline with Tween-80); 98 % of control (dose: 40.0 mg/kg/injection, schedule: Q01DX009 (ip), vehicle: saline with Tween-80).

For the compound `COc1cc(NS(C)(=O)=O)ccc1NS(C)(=O)=O`, the T/C by setting is: under setting [2], 87 % of control; under setting [3], 87 % of control; under setting [4], 87 % of control.

As for `CC1(C)C(O)(C#N)C(C)(C)C1(O)C#N` (stereo unspecified), the T/C runs as follows: (dose: 3.13 mg/kg/injection, schedule: Q04DX003 (ip), vehicle: saline) 100 % of control; (dose: 6.25 mg/kg/injection, schedule: Q04DX003 (ip), vehicle: saline) 109 % of control; (dose: 12.5 mg/kg/injection, schedule: Q04DX003 (ip), vehicle: saline) 95 % of control.

In the case of `Cc1[nH]n(CCO)c(=O)c1N=O`, the T/C (dose: 15.0 mg/kg/injection, schedule: Q01DX009 (ip), vehicle: saline with Tween-80) was 95 % of control; the T/C (dose: 30.0 mg/kg/injection, schedule: Q01DX009 (ip), vehicle: saline with Tween-80) is 93 % of control; the T/C (dose: 60.0 mg/kg/injection, schedule: Q01DX009 (ip), vehicle: saline with Tween-80) is 100 % of control.

Regarding `CC(C)=CCC/C(C)=C\C=N\NS(=O)(=O)c1ccc([N+](=O)[O-])cc1`, the T/C (dose: 6.25 mg/kg/injection, schedule: Q01DX009 (ip), vehicle: saline with Tween-80) is 99 % of control; the T/C under setting [5] is 103 % of control; the T/C (dose: 25.0 mg/kg/injection, schedule: Q01DX009 (ip), vehicle: saline with Tween-80) is 103 % of control.

In the case of `O=C(Nc1ccc(Cl)cc1C(=O)c1ccccn1)c1ccccc1`, the T/C under setting [1] is 120 % of control and the T/C (dose: 400.0 mg/kg/injection, schedule: Q04DX003 (ip), vehicle: saline with Tween-80) was 110 % of control.

Regarding `CC1=C(C#N)C(C)(C)C(C#N)=C(C)N1C`, the T/C reads like this: (dose: 25.0 mg/kg/injection, schedule: Q01DX009 (ip), vehicle: distilled water + Tween-80) 88 % of control; (dose: 50.0 mg/kg/injection, schedule: Q01DX009 (ip), vehicle: distilled water + Tween-80) 100 % of control; (dose: 100.0 mg/kg/injection, schedule: Q01DX009 (ip), vehicle: distilled water + Tween-80) 104 % of control.

Take `C=CC(C)(O)CCC1C(=C)CCC2C(C)(C)CCCC12C` (stereo unspecified): the T/C is, setting by setting: under setting [2], 90 % of control; under setting [6], 95 % of control; under setting [3], 86 % of control; under setting [7], 100 % of control; under setting [4], 95 % of control; under setting [8], 95 % of control.

Regarding `OCC[P+](c1ccccc1)(c1ccccc1)c1ccccc1`, the T/C is, setting by setting: (dose: 25.0 mg/kg/injection, schedule: Q01DX001 (ip), vehicle: saline) 108 % of control; (dose: 50.0 mg/kg/injection, schedule: Q01DX001 (ip), vehicle: saline) 98 % of control.

For the compound `Nc1nc(=S)c2ncn(C3OC(CO)CC3O)c2[nH]1` (stereo unspecified), the T/C (dose: 100.0 mg/kg/injection, schedule: Q01DX009 (ip), vehicle: saline) is 95 % of control.

Regarding `CC(=O)Nc1ccc(S(=O)(=O)NNC(=O)C(=O)Nc2cccc(Cl)c2)cc1`, the T/C runs as follows: (dose: 50.0 mg/kg/injection, schedule: Q01DX005 (ip), vehicle: saline with Tween-80) 96 % of control; (dose: 100.0 mg/kg/injection, schedule: Q01DX005 (ip), vehicle: saline with Tween-80) 89 % of control; (dose: 200.0 mg/kg/injection, schedule: Q01DX005 (ip), vehicle: saline with Tween-80) 96 % of control.

In the case of `Cc1ccccc1NC(=O)Nc1ccccc1C`, the T/C was 88 % of control (dose: 0.37 mg/kg/injection, schedule: Q01DX009 (ip), vehicle: Klucel (hydroxypropylcellulose) (HPC)); 100 % of control (dose: 0.75 mg/kg/injection, schedule: Q01DX009 (ip), vehicle: Klucel (hydroxypropylcellulose) (HPC)); 107 % of control (dose: 1.5 mg/kg/injection, schedule: Q01DX009 (ip), vehicle: Klucel (hydroxypropylcellulose) (HPC)); 104 % of control under setting [6]; 95 % of control under setting [7]; 109 % of control under setting [8].

Turning to `C[NH-].C[NH-].[Br][Pt+2][Br]`, the T/C by setting is: (dose: 6.0 mg/kg/injection, schedule: Q04DX003 (ip), vehicle: other) 170 % of control; (dose: 12.0 mg/kg/injection, schedule: Q04DX003 (ip), vehicle: other) 208 % of control; (dose: 12.5 mg/kg/injection, schedule: Q04DX003 (ip), vehicle: other) 212 % of control.

Regarding `CC[n+]1c(-c2ccccc2)c2cc(N)ccc2c2ccc(N)cc21`, the T/C is, setting by setting: (dose: 1.56 mg/kg/injection, schedule: Q01DX009 (ip), vehicle: saline) 151 % of control; (dose: 3.13 mg/kg/injection, schedule: Q01DX009 (ip), vehicle: saline) 178 % of control; (dose: 5.0 mg/kg/injection, schedule: Q01DX010 (ip), vehicle: saline) 155 % of control; (dose: 5.3 mg/kg/injection, schedule: Q01DX009 (ip), vehicle: saline) 208 % of control; (dose: 6.25 mg/kg/injection, schedule: Q01DX009 (ip), vehicle: saline) 163 % of control; (dose: 6.25 mg/kg/injection, schedule: Q01DX009 (ip), vehicle: water) 163 % of control. Further, the T/C reads like this: (dose: 8.0 mg/kg/injection, schedule: Q01DX009 (ip), vehicle: saline) 198 % of control and 222 % of control; (dose: 12.0 mg/kg/injection, schedule: Q01DX009 (ip), vehicle: saline) 227 % of control and 196 % of control; under setting [5], 113 % of control; (dose: 12.5 mg/kg/injection, schedule: Q01DX009 (ip), vehicle: water) 113 % of control; (dose: 20.0 mg/kg/injection, schedule: Q01DX010 (ip), vehicle: saline) 114 % of control and 120 % of control; (dose: 27.0 mg/kg/injection, schedule: Q01DX009 (ip), vehicle: saline) 97 % of control.

Regarding `NC(=O)N/N=C1\CCCC(CCC(=O)O)C1` (stereo unspecified), the T/C runs as follows: (dose: 100.0 mg/kg/injection, schedule: Q01DX001 (ip), vehicle: Klucel (hydroxypropylcellulose) (HPC)) 96 % of control; (dose: 200.0 mg/kg/injection, schedule: Q01DX001 (ip), vehicle: Klucel (hydroxypropylcellulose) (HPC)) 100 % of control; (dose: 400.0 mg/kg/injection, schedule: Q01DX001 (ip), vehicle: Klucel (hydroxypropylcellulose) (HPC)) 100 % of control.

Consider `O=C(Nc1ccccc1)C1(Br)CC2(C1)CC(Br)(C(=O)Nc1ccccc1)C2` (stereo unspecified), for which the T/C reads like this: (dose: 100.0 mg/kg/injection, schedule: Q01DX001 (ip), vehicle: saline with Tween-80) 92 % of control; (dose: 200.0 mg/kg/injection, schedule: Q01DX001 (ip), vehicle: saline with Tween-80) 99 % of control.
